The record followed here is ChEMBL document CHEMBL1201862, “PubChem BioAssay data set” (2004).

Structures are written as SMILES. Calls of active or inactive are those of the source.

A short description of test [1]: luciferase reporter signal suppression in cells – H4 neuroglioma cells, luminescence, dose response (AID 1990). Type of test: functional, cell-based. For orientation: Reporter assays use an easily measured gene product as a stand-in for the process of interest.
Test [2] deals with HEK293. In words: cells. The class given is functional, cell-based. The note with it: Homo sapiens.
The test system of test [3] is HEK293. Briefly: NOD2 signaling inhibitors in MDP-stimulated cells, cell-based, uHTS, luminescence (AID 2001). The class given is functional. The note with it: Homo sapiens.
Test [4] addresses Peroxisome proliferator-activated receptor gamma/Nuclear receptor corepressor 2 (Homo sapiens, UniProt P37231+Q9Y618). The class given is functional.
The target of test [5] is Tyrosine-protein kinase JAK2 (Homo sapiens, UniProt O60674). The class given is functional.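 Also: JAK2 tested as one member of a kinase panel.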
Test [6] deals with Protein kinase C zeta type (Homo sapiens, UniProt Q05513). The class given is functional.
Sequence of Protein kinase C zeta type (Q05513 whole entry): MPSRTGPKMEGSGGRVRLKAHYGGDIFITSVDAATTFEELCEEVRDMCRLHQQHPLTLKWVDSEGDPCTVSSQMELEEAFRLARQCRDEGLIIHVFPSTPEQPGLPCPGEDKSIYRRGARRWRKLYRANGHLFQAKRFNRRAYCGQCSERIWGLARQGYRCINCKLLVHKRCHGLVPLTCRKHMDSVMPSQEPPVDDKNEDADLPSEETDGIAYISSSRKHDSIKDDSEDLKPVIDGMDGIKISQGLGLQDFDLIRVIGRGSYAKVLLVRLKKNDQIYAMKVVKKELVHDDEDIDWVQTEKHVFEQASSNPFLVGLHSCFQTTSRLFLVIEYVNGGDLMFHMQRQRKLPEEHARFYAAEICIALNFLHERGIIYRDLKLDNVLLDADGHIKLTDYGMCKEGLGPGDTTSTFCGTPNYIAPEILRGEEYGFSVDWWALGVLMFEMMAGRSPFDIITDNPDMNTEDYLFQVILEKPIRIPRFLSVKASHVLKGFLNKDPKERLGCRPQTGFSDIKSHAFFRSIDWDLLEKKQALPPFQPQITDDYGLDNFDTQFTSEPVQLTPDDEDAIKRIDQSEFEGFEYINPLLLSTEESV
Test [7] has as its target cGMP-dependent protein kinase 1 (Homo sapiens, UniProt Q13976). The class given is functional.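 Also: value from a kinome panel screen with PRKG1 as the panel member.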
The target in test [8] is Serine/threonine-protein kinase TBK1 (Homo sapiens, UniProt Q9UHD2). Briefly: Navigating the Kinome. Panel member name: TBK1. The class given is functional.
The target in test [9] is Serine/threonine-protein kinase D2 (Homo sapiens, UniProt Q9BZL6). The class given is functional.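 Also: measured against PRKD2 as one member of a kinome-wide kinase profiling panel.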
Test [10] concerns the target Calcium/calmodulin-dependent protein kinase type II subunit gamma (Homo sapiens, UniProt Q13555). The class given is functional.
Test [11] has as its target Serine/threonine-protein kinase pim-1 (Homo sapiens, UniProt P11309). The class given is functional.
In the next test the target is Aurora kinase A (Homo sapiens, UniProt O14965). The class given is functional.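 Also: value from the Navigating the Kinome kinase panel profiling, panel entry STK6.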
Sequence of Aurora kinase A (O14965 whole entry): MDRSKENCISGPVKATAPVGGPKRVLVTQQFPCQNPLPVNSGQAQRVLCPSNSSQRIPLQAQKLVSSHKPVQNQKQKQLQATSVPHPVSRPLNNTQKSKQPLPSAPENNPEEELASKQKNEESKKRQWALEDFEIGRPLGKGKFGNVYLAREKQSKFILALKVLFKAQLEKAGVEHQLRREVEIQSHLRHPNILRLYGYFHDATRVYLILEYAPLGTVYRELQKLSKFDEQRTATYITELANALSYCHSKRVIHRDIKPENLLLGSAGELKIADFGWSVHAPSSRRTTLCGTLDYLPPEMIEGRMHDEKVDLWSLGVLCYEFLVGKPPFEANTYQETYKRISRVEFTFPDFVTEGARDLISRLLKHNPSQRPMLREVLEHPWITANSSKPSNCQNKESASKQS
Test [12] deals with Cell division cycle 7-related protein kinase (Homo sapiens, UniProt O00311). The class given is functional.
In test [13] the target is Mast/stem cell growth factor receptor Kit (Homo sapiens, UniProt P10721). Type of test: functional.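 Also: KIT entry within a kinase panel assay.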
Test [14] has as its target Serine/threonine-protein kinase PAK 4 (Homo sapiens, UniProt O96013). The class given is functional.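 Also: value obtained within a kinome profiling panel in which PAK4 was one of the panel members.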
The target of test [15] is Calcium/calmodulin-dependent protein kinase type II subunit delta (Homo sapiens, UniProt Q13557). Type of test: functional.
The target in test [16] is Fibroblast growth factor receptor 1 (Homo sapiens, UniProt P11362). Type of test: functional.
For test [17], the target named is Casein kinase I isoform gamma-1 (Homo sapiens, UniProt Q9HCP0). Type of test: functional.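 Also: measured as the CSNK1G1 member of a kinome profiling panel.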
Test [18] has as its target Ribosomal protein S6 kinase alpha-5 (Homo sapiens, UniProt O75582). Type of test: functional.
In test [19] the target is Serine/threonine-protein kinase N2 (Homo sapiens, UniProt Q16513). Type of test: functional.
Test [20] concerns the target High affinity nerve growth factor receptor (Homo sapiens, UniProt P04629). The class given is functional.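 Also: NTRK1 tested as one member of a kinome-wide profiling panel.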
A further test deals with Insulin receptor (Homo sapiens, UniProt P06213). The class given is functional.
Test [21] deals with Mitogen-activated protein kinase kinase kinase 20 (Homo sapiens, UniProt Q9NYL2). Type of test: functional.
Sequence of Mitogen-activated protein kinase kinase kinase 20 (Q9NYL2 whole entry): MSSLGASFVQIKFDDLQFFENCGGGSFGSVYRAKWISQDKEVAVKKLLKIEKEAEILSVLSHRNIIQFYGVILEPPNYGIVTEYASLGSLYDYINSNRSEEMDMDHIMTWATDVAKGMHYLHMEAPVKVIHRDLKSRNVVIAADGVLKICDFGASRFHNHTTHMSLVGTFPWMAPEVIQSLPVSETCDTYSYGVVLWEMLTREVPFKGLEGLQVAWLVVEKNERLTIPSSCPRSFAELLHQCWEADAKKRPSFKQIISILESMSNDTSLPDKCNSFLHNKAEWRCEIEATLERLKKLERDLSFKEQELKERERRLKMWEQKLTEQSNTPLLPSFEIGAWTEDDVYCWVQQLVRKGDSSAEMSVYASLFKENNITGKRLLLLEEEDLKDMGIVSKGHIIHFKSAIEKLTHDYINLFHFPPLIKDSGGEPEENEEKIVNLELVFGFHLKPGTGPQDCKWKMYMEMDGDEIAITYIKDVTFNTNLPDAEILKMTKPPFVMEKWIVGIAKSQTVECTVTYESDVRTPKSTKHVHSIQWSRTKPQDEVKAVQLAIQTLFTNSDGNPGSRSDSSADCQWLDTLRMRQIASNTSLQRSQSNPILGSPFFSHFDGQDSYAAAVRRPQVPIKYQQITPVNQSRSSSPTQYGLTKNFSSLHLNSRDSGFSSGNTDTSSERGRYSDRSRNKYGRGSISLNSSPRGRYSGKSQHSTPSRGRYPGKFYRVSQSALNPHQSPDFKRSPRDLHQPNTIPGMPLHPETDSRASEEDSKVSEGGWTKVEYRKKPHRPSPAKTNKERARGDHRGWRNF
The target of test [22] is Serine/threonine-protein kinase pim-3 (Homo sapiens, UniProt Q86V86). Type of test: functional.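 Also: value obtained as one member of a broad kinase panel profiling effort.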
The target in test [23] is Proto-oncogene tyrosine-protein kinase Src (Homo sapiens, UniProt P12931). Type of test: functional.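 Also: SRC entry within a kinome-wide kinase profiling panel.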
Sequence of Proto-oncogene tyrosine-protein kinase Src (P12931 2-536 limits assumed): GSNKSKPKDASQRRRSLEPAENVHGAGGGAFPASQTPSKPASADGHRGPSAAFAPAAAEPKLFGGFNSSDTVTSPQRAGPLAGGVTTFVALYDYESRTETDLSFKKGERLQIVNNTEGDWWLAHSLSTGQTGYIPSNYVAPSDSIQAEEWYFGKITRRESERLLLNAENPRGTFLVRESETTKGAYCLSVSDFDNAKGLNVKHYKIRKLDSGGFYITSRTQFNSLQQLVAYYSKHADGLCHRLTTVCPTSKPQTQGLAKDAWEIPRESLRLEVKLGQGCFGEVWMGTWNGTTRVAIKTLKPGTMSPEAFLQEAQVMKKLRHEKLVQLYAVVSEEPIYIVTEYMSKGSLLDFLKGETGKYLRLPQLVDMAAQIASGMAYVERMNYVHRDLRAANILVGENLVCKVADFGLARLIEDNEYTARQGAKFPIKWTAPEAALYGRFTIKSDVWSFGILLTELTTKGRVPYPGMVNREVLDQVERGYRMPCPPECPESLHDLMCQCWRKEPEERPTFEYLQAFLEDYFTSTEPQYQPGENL
For test [24], the target named is Casein kinase I isoform delta (Homo sapiens, UniProt P48730). The class given is functional.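 Also: measured as one member (CSNK1D) of a kinome panel.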
The next test addresses Ephrin type-A receptor 2 (Homo sapiens, UniProt P29317). The class given is functional.
For test [25], the target named is Insulin-like growth factor 1 receptor (Homo sapiens, UniProt P08069). Briefly: Navigating the Kinome. Panel member name: IGF1R. Type of test: functional.
The target in test [26] is Dual specificity tyrosine-phosphorylation-regulated kinase 4 (Homo sapiens, UniProt Q9NR20). Type of test: functional.
The target in test [27] is Dual specificity tyrosine-phosphorylation-regulated kinase 1B (Homo sapiens, UniProt Q9Y463). Briefly: Navigating the Kinome. Panel member name: DYRK1B. The class given is functional.
The target in test [28] is Calcium/calmodulin-dependent protein kinase type 1 (Homo sapiens, UniProt Q14012). Type of test: functional.
Test [29] addresses Homeodomain-interacting protein kinase 4 (Homo sapiens, UniProt Q8NE63). The class given is functional.
The target of test [30] is Cyclin-dependent kinase 8 (Homo sapiens, UniProt P49336). In words: Navigating the Kinome. Panel member name: CDK8. The class given is functional.
Test [31] concerns the target Fibroblast growth factor receptor 3 (Homo sapiens, UniProt P22607). The class given is functional.
In test [32] the target is Cyclin-dependent kinase 9 (Homo sapiens, UniProt P50750). The class given is functional.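 Also: value from the CDK9 entry of a kinome-spanning kinase panel.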
Test [33] deals with Dual specificity mitogen-activated protein kinase kinase 2 (Homo sapiens, UniProt P36507). In words: Navigating the Kinome. Panel member name: MAP2K2. The class given is functional.
In test [34] the target is Envelope glycoprotein gp160 (Human immunodeficiency virus 1, UniProt Q6QLK5). In words: cell-free HIV fusion peptide-binding blockers – biochemical, uHTS, fluorescence dequenching, […] (AID 1986).
Sequence of Envelope glycoprotein gp160 (Q6QLK5 whole entry, the tested form may be a part): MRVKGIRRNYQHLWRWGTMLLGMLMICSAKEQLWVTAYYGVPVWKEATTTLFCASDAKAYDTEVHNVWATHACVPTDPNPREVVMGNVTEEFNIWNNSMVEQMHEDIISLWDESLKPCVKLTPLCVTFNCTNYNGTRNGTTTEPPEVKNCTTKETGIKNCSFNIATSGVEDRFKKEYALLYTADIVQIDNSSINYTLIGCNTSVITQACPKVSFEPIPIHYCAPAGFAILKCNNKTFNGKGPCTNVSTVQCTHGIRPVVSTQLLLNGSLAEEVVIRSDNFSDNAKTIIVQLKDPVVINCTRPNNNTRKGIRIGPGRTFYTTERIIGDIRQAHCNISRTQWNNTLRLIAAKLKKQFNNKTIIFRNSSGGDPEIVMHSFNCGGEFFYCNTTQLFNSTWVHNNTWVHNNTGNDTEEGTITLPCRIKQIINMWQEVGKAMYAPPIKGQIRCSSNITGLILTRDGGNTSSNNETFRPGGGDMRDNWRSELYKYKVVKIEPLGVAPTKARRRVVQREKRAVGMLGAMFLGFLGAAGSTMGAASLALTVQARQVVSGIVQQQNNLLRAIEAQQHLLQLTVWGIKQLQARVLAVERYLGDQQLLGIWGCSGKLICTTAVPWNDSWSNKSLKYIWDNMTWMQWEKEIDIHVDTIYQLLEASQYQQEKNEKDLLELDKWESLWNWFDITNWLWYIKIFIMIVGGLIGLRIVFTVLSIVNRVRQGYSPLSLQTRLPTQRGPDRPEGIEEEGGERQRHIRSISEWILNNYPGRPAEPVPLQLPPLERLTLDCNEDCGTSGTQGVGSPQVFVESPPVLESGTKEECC
A further test deals with T1, Streptokinase A (Streptococcus pyogenes serotype M1, UniProt P10520).
T1 sequence (P10520 whole entry): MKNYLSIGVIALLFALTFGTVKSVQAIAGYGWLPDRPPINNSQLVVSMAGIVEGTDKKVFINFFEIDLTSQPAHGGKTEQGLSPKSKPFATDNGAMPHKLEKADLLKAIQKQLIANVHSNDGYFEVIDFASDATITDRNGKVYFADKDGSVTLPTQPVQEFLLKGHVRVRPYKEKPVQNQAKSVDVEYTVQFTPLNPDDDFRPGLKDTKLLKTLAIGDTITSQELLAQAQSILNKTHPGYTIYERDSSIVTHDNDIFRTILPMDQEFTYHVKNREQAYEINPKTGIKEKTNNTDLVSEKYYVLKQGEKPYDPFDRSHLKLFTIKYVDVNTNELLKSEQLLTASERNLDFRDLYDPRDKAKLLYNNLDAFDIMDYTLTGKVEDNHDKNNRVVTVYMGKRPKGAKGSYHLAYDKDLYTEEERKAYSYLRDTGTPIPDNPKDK
In words: viability-normalized secreted streptokinase activity reduction – plasminogen activation absorbance, OD405, dose response (AID 1914).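 Also: secreted streptokinase activity via plasminogen activation per viability signal from cell pellet.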 The class given is functional, Streptococcus pyogenes M1 GAS.

Test [35] in a line: RKO cell viability reduction, dose response, CellTiter-Glo luminescence (AID 1117322). The class given is functional. For orientation: ATP-based viability assays read luminescence as a measure of living cells.
Test [36] can be described thus: SNU-C1 cell viability reduction, dose response, CellTiter-Glo luminescence (AID 1117323). The class given is functional, cell-based.
Test [37] is described as follows: cytotoxicity toward HT-29 cells – cell-based, CellTiter-Glo luminescence, IC50, dose response (AID 1117330). Type of test: functional.
The nature of test [38]: Reduced DLD-1 viability, concentration-response, CellTiter-Glo luminescence (AID 1117352). The class given is functional.

Sequence of Fibroblast growth factor receptor 3 (P22607 whole entry): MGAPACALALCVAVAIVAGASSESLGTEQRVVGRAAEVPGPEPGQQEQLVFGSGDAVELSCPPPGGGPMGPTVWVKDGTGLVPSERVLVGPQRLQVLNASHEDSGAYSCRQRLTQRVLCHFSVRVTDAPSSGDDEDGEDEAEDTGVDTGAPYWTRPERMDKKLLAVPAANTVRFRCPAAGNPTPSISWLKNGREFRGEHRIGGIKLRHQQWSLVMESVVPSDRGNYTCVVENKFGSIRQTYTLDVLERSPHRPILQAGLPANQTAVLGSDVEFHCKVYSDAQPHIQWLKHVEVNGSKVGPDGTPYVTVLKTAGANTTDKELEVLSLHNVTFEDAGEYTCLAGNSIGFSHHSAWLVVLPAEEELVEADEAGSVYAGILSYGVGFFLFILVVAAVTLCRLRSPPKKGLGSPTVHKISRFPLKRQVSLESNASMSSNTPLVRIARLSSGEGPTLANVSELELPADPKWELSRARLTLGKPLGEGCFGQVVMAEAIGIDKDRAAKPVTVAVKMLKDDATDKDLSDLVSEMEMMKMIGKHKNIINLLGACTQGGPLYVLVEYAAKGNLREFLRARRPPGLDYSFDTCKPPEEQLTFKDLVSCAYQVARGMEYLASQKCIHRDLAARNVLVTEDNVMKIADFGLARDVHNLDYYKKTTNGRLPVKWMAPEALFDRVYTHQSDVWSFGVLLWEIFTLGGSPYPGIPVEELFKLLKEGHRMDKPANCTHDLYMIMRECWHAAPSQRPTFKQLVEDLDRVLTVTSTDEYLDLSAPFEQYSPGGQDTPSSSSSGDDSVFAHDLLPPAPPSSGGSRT
Sequence of Ephrin type-A receptor 2 (P29317 whole entry): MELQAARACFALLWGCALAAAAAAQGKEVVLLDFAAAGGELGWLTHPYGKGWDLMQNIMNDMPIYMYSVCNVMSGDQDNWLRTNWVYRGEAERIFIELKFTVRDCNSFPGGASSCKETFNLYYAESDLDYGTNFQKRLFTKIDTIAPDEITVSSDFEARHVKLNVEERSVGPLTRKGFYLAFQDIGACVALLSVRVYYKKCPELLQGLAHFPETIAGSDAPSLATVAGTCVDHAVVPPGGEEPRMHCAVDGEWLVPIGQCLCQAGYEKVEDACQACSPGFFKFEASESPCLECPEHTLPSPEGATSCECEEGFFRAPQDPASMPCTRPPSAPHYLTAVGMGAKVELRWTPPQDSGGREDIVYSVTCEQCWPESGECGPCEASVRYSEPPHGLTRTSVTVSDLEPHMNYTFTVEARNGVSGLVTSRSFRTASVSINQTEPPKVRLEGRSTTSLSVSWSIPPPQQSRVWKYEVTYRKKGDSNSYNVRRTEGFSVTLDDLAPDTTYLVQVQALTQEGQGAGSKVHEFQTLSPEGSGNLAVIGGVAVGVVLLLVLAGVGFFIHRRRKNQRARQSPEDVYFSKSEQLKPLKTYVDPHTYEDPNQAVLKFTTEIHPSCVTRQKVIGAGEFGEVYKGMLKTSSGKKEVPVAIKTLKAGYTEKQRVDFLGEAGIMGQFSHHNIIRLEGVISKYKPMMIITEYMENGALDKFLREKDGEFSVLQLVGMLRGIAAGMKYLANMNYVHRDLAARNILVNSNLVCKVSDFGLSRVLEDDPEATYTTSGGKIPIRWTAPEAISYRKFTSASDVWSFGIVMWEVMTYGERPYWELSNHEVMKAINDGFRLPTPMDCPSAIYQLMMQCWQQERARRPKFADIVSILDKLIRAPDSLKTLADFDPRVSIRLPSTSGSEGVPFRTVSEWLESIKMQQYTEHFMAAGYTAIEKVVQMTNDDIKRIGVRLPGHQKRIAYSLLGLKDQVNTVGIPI

Usually EC50 stands for the midpoint of the concentration-response curve. By IC50 is commonly meant the concentration needed to halve the response being measured. As for `O=C1C=C(N2CCOCC2)c2ccccc2C1=O`, the EC50 in test [1] was 8.37 µM (active). Moreover, the IC50 is 9.46 µM (active) with HEK293 [2], 10.3 µM (inactive) with HEK293 [3] and > 39.8 µM (not active) in [4].

A word on the Ki: it is the equilibrium dissociation constant of an inhibitor or competing ligand from its target. Take `N#Cc1ccc2[nH]c(O)c(-c3ccc(CN4CCOCC4)cn3)c2c1` [AZD-1080]: the Ki in [5] was > 2 µM (inactive); in test [6], > 7.94 µM (inactive); in test [7] it was > 2 µM (inactive); in test [8] it was > 3.16 µM (inactive); in test [9] it was 7.94 µM (active); in test [10], 5.01 µM (active). Moreover, the Ki in [11] was > 5.01 µM (inactive); on Aurora kinase A, > 1.58 µM (inactive); in test [12], > 1.26 µM (inactive); in test [13] it was > 1.26 µM (inactive); in test [14] it was > 5.01 µM (inactive); in [15] it was > 6.31 µM (inactive). In addition, the Ki in test [16] was > 3.98 µM (inactive); in test [17], > 6.31 µM (inactive); in [18] it was > 2 µM (inactive); in test [19], > 6.31 µM (inactive); in [20] it was > 2.51 µM (inactive); on Insulin receptor, > 5.01 µM (inactive). Besides, the Ki was > 7.94 µM (inactive) in [21]; 3.98 µM (active) in [22]; > 2 µM (inactive) in [23]; > 7.94 µM (inactive) in [24]; > 3.16 µM (inactive) on Ephrin type-A receptor 2; > 2.51 µM (inactive) in test [25]. The Ki was > 7.94 µM (inactive) in test [26]; 1 µM (active) in test [27]; > 6.31 µM (inactive) in test [28]; > 7.94 µM (inactive) in [29]; > 3.98 µM (inactive) in test [30]; > 2 µM (inactive) in test [31]. Further, the Ki in test [32] is > 1.58 µM (inactive); in test [33], > 3.98 µM (inactive).

For `CCc1oc2ccccc2c1C(=O)c1cc(Br)c(O)c(Br)c1` [BENZBROMARONE], the IC50 is 12.8 µM (active) in test [34]; 0.131 µM (active) in test [35]; 0.105 µM (active) in test [36]; 1.14 µM (active) in test [37]; 0.268 µM (active) in [38]. Moreover, at Streptokinase A, the EC50 is 17.2 µM (inconclusive).
